7 compounds from US5510345A, “Biologically active eburnamenine derivatives, pharmaceutical compositions containing them and process for preparing same” (Richter Gedeon Vegyeszeti Gyar Rt., priority 1992, dated 1996) can be followed below.

A word on the IC50: it is the concentration at which inhibition is half-maximal.

Where a name gives a salt, the structure may show the parent alone.

For assay [1], the system named is NADPH-induced lipid peroxidation in rat brain microsomes. In words: Inhibition of the NADPH-induced (enzymatically induced) lipid peroxidation in brain microsomes. In kind it is biochemical, rat (male Hannover-Wistar). The settings on record: 20 min, 37° C., pH 6.8, 0.4 mM NADPH, malondialdehyde at 535 nm, N.I.: no inhibition. The text has this: The pharmacological effect of the eburnamenine derivatives of the formula (I) was studied as described hereinafter. […] The antioxidative effect was investigated on microsomes prepared from rat brain J. Neurochem. 37, pages 422-426 (1981)! and on rat brain homogenate J. Biol Chem. 262, pages 10438-10440 (1987)!. Inhibition of the NADPH-induced lipid peroxidation in brain microsomes Male Hannover-Wistar rats with a body weight of 150-250 g were used for the preparation of microsomes. After decapitation, the whole brain of the rat was removed and homogenized in a 10-fold volume of ice-cold 0.25M saccharose solution. The homogenate was centrifuged in a Hitachi CR 26H equipment at 15000×g at 4° C. for 10 minutes, then the supernatant was collected and centrifuged in a Hitachi SC[…] equipment at 78000×g at 4° C. for 60 minutes. After suspending the precipitate in 0.15M potassium chloride solution, the protein content of the obtained solution was determined and then adjusted to 10 mg/ml concentration. The microsome thus obtained was frozen in a dry ice-acetone mixture and stored at -70° C. until use. The components of the incubation mixtures were: 50 mM tris(hydroxymethyl)aminomethane hydrochloride (pH 6.8), 0.2 mM ferric chloride, 1 mM potassium dihydrogen phosphate, 0.5 mM adenosine-5'-diphosphate, 0.2 mg of microsomes as well as the compound to be tested. The incubation was carried out with a final volume of 1 ml and an incubation time of 20 minutes at a temperature of 37° C. The lipid peroxidation was induced by adding 0.4 mM NADPH ([…], reduced form). […] The formation of malondialdehyde was determined by using thiobarbituric acid. After stopping the reaction, 1 ml of 1% thiobarbituric acid solution each was added to the samples, which were then 10 placed in a water bath of about 100° C. for 10 minutes. Subsequently, the samples were centrifuged at 2000×g in a Janetzki K70 apparatus at 4° C. for 10 minutes. The absorbance value of the colored supernatant was measured at 535 nm in a Hitachi 150-20 spectrophotometer. Malondialdehyde bis(diethylacetal) was used as reference compound. The IC50 values of the compounds were determined on the basis of the concentration/effect correlations thereof and are indicated in Table I.

Assay [2] has as its system Fe^2+-induced lipid peroxidation in rat brain homogenate. In words: Effect on the Fe^2+-induced (non-enzymatically induced) lipid peroxidation in brain homogenate. The class given is biochemical, rat (Hannover-Wistar). The settings on record: for inhibition of the Fe^2+-induced lipid peroxidation compared with silymarin or ellagic acid / inhibitory effect on the Fe^2+-induced lipid peroxidation compared with DL-α-tocopherol / antioxidant activity compared with tirilazad mesylate: in words, from Table I; for IC50: rat brain homogenate, 20 min, 37° C., pH 7.4, 8 mM ferrous diammonium disulfate solution (5 μl), malondialdehyde at 535 nm, read-out: Inhibition of the Fe^2+-induced lipid peroxidation IC50.
Method: Effect on the Fe^2 +-induced lipid peroxidation in brain homogenate
After decapitating Hannover-Wistar rats weighing 150-220 g each, the whole brain was homogenized in 9 volumes of icecold Krebs-Ringer's buffer containing 15 mM 4-(2-hydroxyethyl)-1-(piperazinylethanesulfonic acid (abbreviated: HEPES, pH 7.4), 140 mM sodium chloride, 3.6 mM potassium chloride, 1.5 mM calcium chloride, 0.7 mM magnesium chloride, 1.4 mM potassium dihydrogen phosphate and 10 mM glucose!. Then, the protein content of the solution was determined and adjusted to 10 mg/ml concentration.
After adding the inhibitory agent to be tested in a volume of 5 ml to 200 μl of the homogenate, the incubation mixture was incubated at 37° C. for 20 minutes. The Fe^2+ -induced lipid peroxidation was accomplished by adding 5 μl of 8 mM ferrous diammonium disulfate Fe(NH4)2 (SO4)2 ! solution. After passing of the incubation time, the reaction was stopped by adding 1 ml of a stopping solution containing 0.8M hydrogen chloride in trichloroacetic acid solution of 12.5%; then the samples were centrifuged at 2000×g in a Janetzki apparatus at 4° C. for 10 minutes.
To 0.5 ml portion of the supernatant, 1 ml of 1% thiobarbituric acid solution was added, then the samples were placed in a water bath of 100° C. for 20 minutes. The color intensity developed was determined at 535 nm with the aid of a Hitachi 150-20 spectrophotometer by using malondialdehyde bis(diethylacetal) as reference compound.

`CCC12C=C(C(=O)N3CCN(c4cc(N5CCCC5)nc(N5CCCC5)n4)CC3)n3c4c(c5ccccc53)CCN(CCC1)C42` (stereo not drawn) [Compound 3, 1-(16α)-eburnamenine-14-carbonyl!-4-2,6-bis(pyrrolidino)-4-pyrimidinyl!piperazine] registered an IC50 in assay [1] of 2.4 µM. Further, in assay [2], the “inhibition of the Fe^2+-induced lipid peroxidation compared with silymarin or ellagic acid” value is reported as “more effectively than the hepatoprotective silymarin or the anticancerogenic ellagic acid”, the “inhibitory effect on the Fe^2+-induced lipid peroxidation compared with DL-α-tocopherol” value is reported as “reaches the antioxidant activity of the therapeutically used DL-α-tocopherol” and the IC50 was 11.4 µM.
Consider `CC[C@@]12C=C(C(=O)N3CCN(c4cc(N5CCCC5)nc(N5CCCC5)n4)CC3)n3c4c(c5ccccc53)CCN(CCC1)[C@H]42` [Compound 1, 1-(3α,16α)-eburnamenine-14-carbonyl!-4-2,6-bis(pyrrolidino)-4-pyrimidinyl!piperazine], for which, in assay [1], half-maximal inhibition (IC50) required 24.2 µM. Moreover, in assay [2], the “antioxidant activity compared with tirilazad mesylate” value was “reaches and even exceeds to some extent the lipid peroxidation-inhibiting effect of tirilazad mesylate”; the half-maximal inhibitory concentration (IC50) amounted to 124 µM.
In the case of `CC[C@@]12C=C(CN3CCN(c4cc(N5CCCC5)nc(N5CCCC5)n4)CC3)n3c4c(c5ccccc53)CCN(CCC1)[C@H]42` [Compound 2, 1-{ (3α,16α)-eburnamenine-14-yl!methyl}-4-2,6-bis(pyrrolidino)-4-pyrimidinyl!piperazine trihydrobromide], the IC50 in assay [1] stood at 6.2 µM. Further, in assay [2], the “antioxidant activity compared with tirilazad mesylate” value was “reaches and even exceeds to some extent the lipid peroxidation-inhibiting effect of tirilazad mesylate”; the IC50 was 112 µM.
On to `O=c1oc2c(O)c(O)cc3c(=O)oc4c(O)c(O)cc1c4c23` [Ellagic acid, 4,4',5,5',6,6'-hexahydrodiphenic acid 2,6':2',6-dilactone, reference compound], for which the IC50 was found to be 47.2 µM in assay [1] and 51 µM in assay [2].
For `C[C@@H]1C[C@H]2[C@@H]3CCC4=CC(=O)C=C[C@]4(C)C3=CC[C@]2(C)[C@H]1C(=O)CN1CCN(c2cc(N3CCCC3)nc(N3CCCC3)n2)CC1` [Tirilazad mesylate, 16α-methyl-21-{4-2,4-bis(pyrrolidino)6-pyrimidinyl!-1-piperazinyl}-pregna-1,4,9(11)-trien-3,20-dione methanesulfonate, reference compound] the same measures were 121 µM and 135 µM.
`CCC12C=C(C(=O)N3CCN(c4cc(N5CCCC5)nc(N5CCCC5)n4)CC3)n3c4c(c5ccccc53)CCN(CCC1)C42` (stereo not drawn) [Compound 4, 1-(3α)-eburnamenine-14-carbonyl!-4-2,6-bis(pyrrolidino)-4-pyrimidinyl!piperazine]: the IC50 in assay [1] is 3.1 µM. Besides, in assay [2], the “inhibition of the Fe^2+-induced lipid peroxidation compared with silymarin or ellagic acid” value is listed as “more effectively than the hepatoprotective silymarin or the anticancerogenic ellagic acid”, the “inhibitory effect on the Fe^2+-induced lipid peroxidation compared with DL-α-tocopherol” value is listed as “reaches the antioxidant activity of the therapeutically used DL-α-tocopherol” and the IC50 was 10.3 µM.
As to `Cc1c(C)c2c(c(C)c1O)CCC(C)(CCCC(C)CCCC(C)CCCC(C)C)O2` (racemic) [DL-α-Tocopherol, reference compound], the “Inhibition of the NADPH-induced lipid peroxidation IC50” value in assay [1] is “N.I”. Besides, the IC50 in assay [2] was determined as 10.5 µM.
